Patent US20230031406A1, “COMPOUNDS AND COMPOSITIONS FOR TREATING CONDITIONS ASSOCIATED WITH NLRP ACTIVITY” (Novartis AG, priority 2018, published 2023)
Like-named read-outs stand apart in the source and are kept apart here. Blank lines part the entries; values can stand above or below the molecule they belong to.

System: PMA-differentiated THP-1 cells
Assay: hTHP-1 assay containing 10% fetal bovine serum (IL-1β production, Tables B5 and B6)
Assay type: cell-based, human
Procedure: The following protocol is suitable for testing the activity of the compounds disclosed herein. Procedure 1: IL-1β Production in PMA-Differentiated THP-1 Cells Stimulated with Gramicidin.
THP-1 cells were purchased from the American Type Culture Collection and sub-cultured according to instructions from the supplier. Cells were cultured in complete RPMI 1640 (containing 10% heat inactivated FBS, penicillin (100 units/ml) and streptomycin (100 μg/ml)), and maintained in log phase prior to experimental setup. Prior to the experiment, compounds were dissolved in dimethyl sulfoxide (DMSO) to generate a 30 mM stock. The compound stock was first pre-diluted in DMSO to 3, 0.34, 0.042 and 0.0083 mM intermediate concentrations and subsequently spotted using Echo550 liquid handler into an empty 384-well assay plate to achieve desired final concentration (e.g. 100, 33, 11, 3.7, 1.2, 0.41, 0.14, 0.046, 0.015, 0.0051, 0.0017 μM). DMSO was backfilled in the plate to achieve a final DMSO assay concentration of 0.37%. The plate was then sealed and stored at room temperature until required.
THP-1 cells were treated with PMA (Phorbol 12-myristate 13-acetate) (20 ng/ml) for 16-18 hours. On the day of the experiment the media was removed and adherent cells were detached with trypsin for 5 minutes. […] The cells were plated in the 384-well assay plate containing the spotted compounds at a density of 50,000 cells/well (final assay volume 50 μl). Cells were incubated with compounds for 1 hour and then stimulated with gramicidin (5 μM) (Enzo) for 2 hours. Plates were then centrifuged at 340 g for 5 min. Cell free supernatant (40 μL) was collected using a 96—CHannel PlateMaster (Gilson) and the production of IL-1β was evaluated by HTRF (cisbio). The plates were incubated for 18 h at 4° C. and read using the preset HTRF program (donor emission at 620 nm, acceptor emission at 668 nm) of the SpectraMax i3x spectrophotometer (Molecular Devices, software SoftMax 6). A vehicle only control and a dose titration of CRID3 (100-0.0017 μM) were run concurrently with each experiment.
Procedure 2: IL-1β Production in PMA-Differentiated THP-1 Cells Stimulated with Gramicidin.
THP-1 cells were purchased from the American Type Culture Collection and sub-cultured according to instructions from the supplier. Prior to experiments, cells were cultured in complete RPMI 1640 (containing 10% heat inactivated FBS, penicillin (100 units/ml) and streptomycin (100 μg/ml)), and maintained in log phase prior to experimental setup. Prior to the experiment THP-1 were treated with PMA (Phorbol 12-myristate 13-acetate) (20 ng/ml) for 16-18 hours. Compounds were dissolved in dimethyl sulfoxide (DMSO) to generate a 30mM stock. On the day of the experiment the media was removed and adherent cells were detached with trypsin for 5 minutes. […] The cells were plated in a 384-well plate at a density of 50,000 cells/well (final assay volume […]). Compounds were first dissolved in assay medium to obtain a 5× top concentration of 500 μM. 10 step dilutions (1:3) were then undertaken in assay medium containing 1.67% DMSO. 5× compound solutions were added to the culture medium to achieve desired final concentration (e.g. 100, 33, 11, 3.7, 1.2, 0.41, 0.14, 0.046, 0.015, 0.0051, 0.0017 μM). Final DMSO concentration was at 0.37%. Cells were incubated with compounds for 1 hour and then stimulated with gramicidin (5 μM) (Enzo) for 2 hours. Plates were then centrifuged at 340 g for 5 min. Cell free supernatant (40 μL) was collected using a 96—CHannel PlateMaster (Gilson) and the production of IL-1β was evaluated by HTRF (cisbio). A vehicle only control and a dose titration of CRID3 (100-0.0017 μM) were run concurrently with each experiment.
Tables B1, B2, B3, and B4 show the biological activity of compounds in hTHP-1 assay containing 2% fetal bovine serum. […] Key: <0.008 μM=“++++++”; ≥0.008 and <0.04 μM=“+++++”; >0.04 and <0.2 μM=“++++”; ≥0.2 and <1 μM=“+++”; ≥1 and <5 μM=“++”; ≥5 and <30 μM=“+”. […]

[1] = Homo sapiens, THP-1, read-out: hTHP-1 IC50 in 10% FBS, hTHP-1 assay containing 10% fetal bovine serum, Table B5
[2] = Homo sapiens, THP-1, read-out: hTHP-1 IC50 in 10% FBS, hTHP-1 assay containing 10% fetal bovine serum, Table B6

IC50 (read-out: hTHP-1 IC50 in 10% FBS, hTHP-1 assay containing 10% fetal bovine serum, Table B5, listed as 825): 8 to 40 nM
Structure (SMILES): CCn1cc(F)c(S(N)(=O)=NC(=O)Nc2c(C)c(C(F)(F)F)nc3c2CC(C)C3)n1 (single isomer, unassigned) [Compound 1101e, (R, S) or (R, R)-N′-((3,6-dimethyl-2-(trifluoromethyl)-6,7-dihydro-5H-cyclopenta[b]pyridin-4-yl)carbamoyl)-1-ethyl-4-fluoro-1H-pyrazole-3-sulfonimidamide]

IC50 (read-out: hTHP-1 IC50 in 10% FBS, hTHP-1 assay containing 10% fetal bovine serum, Table B5, listed as 832): 40 to 200 nM
Structure (SMILES): Cc1c(C(F)(F)F)nc2c(c1NC(=O)N=S(N)(=O)c1nn(C(C)(F)F)cc1F)CCC2 (single isomer, unassigned) [Compound 1004a, (R) or (S)-1-(1,1-Difluoroethyl)-4-fluoro-N′-((3-methyl-2-(trifluoromethyl)-6,7-dihydro-5H-cyclopenta[b]pyridin-4-yl)carbamoyl)-1H-pyrazole-3-sulfonimidamide]

IC50 [1]: 8 to 40 nM
Structure (SMILES): C[C@@H]1CCc2c1nc1c(c2NC(=O)N=S(N)(=O)c2scc(C(C)(C)O)c2F)CCC1 (stereo partly drawn) [Compound 1109, 3-Fluoro-4-(2-hydroxy-propan-2-yl)-N′-(((R)-3-methyl-1,2,3,5,6,7-hexahydrodicyclopenta [b,e]pyridin-8-yl)-carbamoyl)thiophene-2-sulfonimidamide]

IC50 (read-out: hTHP-1 IC50 in 10% FBS, hTHP-1 assay containing 10% fetal bovine serum, Table B5, listed as 848): 8 to 40 nM
Structure (SMILES): CCn1cc(F)c(S(N)(=O)=NC(=O)Nc2c3c(nc(C)c2C(F)(F)F)CCC3)n1 (single isomer, unassigned) [Compound 1116a, (R) or (S)-1-ethyl-4-fluoro-N′-((2-methyl-3-(trifluoromethyl)-6,7-dihydro-5H-cyclopenta[b]pyridin-4-yl)carbamoyl)-1H-pyrazole-3-sulfonimidamide]

IC50 (read-out: hTHP-1 IC50 in 10% FBS, hTHP-1 assay containing 10% fetal bovine serum, Table B5, listed as 834): 40 to 200 nM
Structure (SMILES): CC(C)(O)c1csc(S(N)(=O)=NC(=O)Nc2c3c(nc(C(F)(F)F)c2C2CC2)CCC3)c1F (single isomer, unassigned) [Compound 1105a, (R) or (S)-N′-((3-cyclopropyl-2-(trifluoromethyl)-6,7-dihydro-5H-cyclopenta[b]pyridin-4-yl)carbamoyl)-3-fluoro-4-(2-hydroxypropan-2-yl)thiophene-2-sulfonimidamide]

IC50 [2]: 40 to 200 nM
Structure (SMILES): NS(=O)(=NC(=O)Nc1c2c(nc3c1CCC31CC1)CCC2)c1nn(C2CC2)cc1F (stereo not shown) [Example 857, 1-Cyclopropyl-4-fluoro-N′-((1′,5′,6′,7′-tetrahydro-2′H-spiro[cyclopropane-1,3′-dicyclopenta[b,e]pyridin]-8′-yl)carbamoyl)-1H-pyrazole-3-sulfonimidamide]

IC50 [1]: 40 to 200 nM
Structure (SMILES): Cc1c(C(F)(F)F)nc2c(c1NC(=O)N=S(N)(=O)c1scc(C(C)(C)O)c1F)CCC2 (stereo not shown) [Compound 1108, 3-Fluoro-4-(2-hydroxy-propan-2-yl)-N′-((3-methyl-2-(trifluoromethyl)-6,7-dihydro-5H-cyclopenta[b]pyridin-4-yl)carbamoyl)thiophene-2-sulfonimidamide]

IC50 (read-out: hTHP-1 IC50 in 10% FBS, hTHP-1 assay containing 10% fetal bovine serum, Table B6): 200 to 1000 nM
Structure (SMILES): NS(=O)(=NC(=O)Nc1c2c(nc3c1CCC3)CCC2)c1nn(C2CC2)cc1F (single isomer, unassigned) [Example 864, (S) or (R)-1-cyclopropyl-4-fluoro-N′-((1,2,3,5,6,7-hexahydrodicyclopenta[b,e]pyridin-8-yl)carbamoyl)-1H-pyrazole-3-sulfonimidamide]

IC50 [2]: 40 to 200 nM
Structure (SMILES): NS(=O)(=NC(=O)Nc1c2c(nc3c1CCC31CC1)CCC2)c1ccn(C2CC2)n1 (stereo not shown) [Example 861, 1-Cyclopropyl-N′-((1′,5′,6′,7′-tetrahydro-2′H-spiro[cyclopropane-1,3′-dicyclopenta[b,e]pyridin]-8′-yl)carbamoyl)-1H-pyrazole-3-sulfonimidamide]

IC50 (read-out: hTHP-1 IC50 in 10% FBS, hTHP-1 assay containing 10% fetal bovine serum, Table B5, listed as 839): 1000 to 5000 nM
Structure (SMILES): CC(C)(O)c1csc(S(N)(=O)=NC(=O)Nc2c3c(nc4c2CCC4)CCC3)c1F (single isomer, unassigned) [Compound 1107b, (S) or (R)-3-fluoro-N′-((1,2,3,5,6,7-hexahydrodicyclopenta[b,e]pyridin-8-yl)carbamoyl)-4-(2-hydroxypropan-2-yl)thiophene-2-sulfonimidamide]

IC50 [2]: 40 to 200 nM
Structure (SMILES): NS(=O)(=NC(=O)Nc1c2c(nc3c1CCC31CC1)CCC2)c1nn(C2CC2)cc1F (single isomer, unassigned) [Example 865, (R) or (S)-1-cyclopropyl-4-fluoro-N′-((1′,5′,6′,7′-tetrahydro-2′H-spiro[cyclopropan-1,3′-dicyclopenta[b,e]pyridin]-8′-yl)carbamoyl)-1H-pyrazole-3-sulfonimidamide]

IC50 (read-out: hTHP-1 IC50 in 10% FBS, hTHP-1 assay containing 10% fetal bovine serum, Table B5, listed as 838): 40 to 200 nM
Structure (SMILES): CC(C)(O)c1csc(S(N)(=O)=NC(=O)Nc2c3c(nc4c2CCC4)CCC3)c1F (single isomer, unassigned) [Compound 1107a, (R) or (S)-3-fluoro-N′-((1,2,3,5,6,7-hexahydrodicyclopenta[b,e]pyridin-8-yl)carbamoyl)-4-(2-hydroxypropan-2-yl)thiophene-2-sulfonimidamide]

IC50 (read-out: hTHP-1 IC50 in 10% FBS, hTHP-1 assay containing 10% fetal bovine serum, Table B5, listed as 850): 8 to 40 nM
Structure (SMILES): C[C@@H]1CCc2c1nc1c(c2NC(=O)N=S(N)(=O)c2nn(C(C)(F)F)cc2F)CCC1 (single isomer, unassigned) [Compound 1117a, (R) or (S)-1-(1,1-difluoroethyl)-4-fluoro-N′-(((R)-3-methyl-1,2,3,5,6,7-hexahydrodicyclopenta[b,e]pyridin-8-yl)carbamoyl)-1H-pyrazole-3-sulfonimidamide]

IC50 [2]: 40 to 200 nM
Structure (SMILES): Cc1c(C(F)(F)F)nc2c(c1NC(=O)N=S(N)(=O)c1nn(C3CC3)cc1F)CCC2 (stereo not shown) [Example 854, 1-Cyclopropyl-4-fluoro-N′-((3-methyl-2-(trifluoromethyl)-6,7-dihydro-5H-cyclopenta[b]pyridin-4-yl)carbamoyl)-1H-pyrazole-3-sulfonimidamide]

IC50 [1]: 5000 to 30000 nM
Structure (SMILES): Cc1c(C(F)(F)F)nc2c(c1NC(=O)N=S(N)(=O)c1cnc(C(F)F)s1)CCC2 (stereo not shown) [Compound 1007, 2-(Difluoromethyl)-N′-((3-methyl-2-(trifluoromethyl)-6,7-dihydro-5H-cyclopenta[b]pyridin-4-yl)carbamoyl)thiazole-5-sulfonimidamide]

IC50 (read-out: hTHP-1 IC50 in 10% FBS, hTHP-1 assay containing 10% fetal bovine serum, Table B5, listed as 835): 200 to 1000 nM
Structure (SMILES): CC(C)(O)c1csc(S(N)(=O)=NC(=O)Nc2c3c(nc(C(F)(F)F)c2C2CC2)CCC3)c1F (single isomer, unassigned) [Compound 1105b, (S) or (R)-N′-((3-cyclopropyl-2-(trifluoromethyl)-6,7-dihydro-5H-cyclopenta[b]pyridin-4-yl)carbamoyl)-3-fluoro-4-(2-hydroxypropan-2-yl)thiophene-2-sulfonimidamide]
